PubChem BioAssay (NCI)
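Assay format: 96-well plates, 48-hour exposure. Abbreviation: GI50, concentration required for 50% inhibition of growth. At the TGI there is no net growth.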

Legend:
Test in all cases: inhibition of tumour cell growth, NCI panel, 48 h
[1] = test system: 786-0 renal
[2] = test system: A498 renal
[3] = test system: A549 NSCLC
[4] = test system: ACHN renal
[5] = test system: BT-549 breast
[6] = test system: CAKI-1 renal
[7] = test system: CCRF-CEM leukemia
[8] = test system: COLO 205 colon
[9] = test system: DU-145 prostate
[10] = test system: EKVX NSCLC
[11] = test system: HCC-2998 colon
[12] = test system: HCT-116 colon
[13] = test system: HCT-15 colon
[14] = test system: HL-60(TB) leukemia
[15] = test system: HOP-62 NSCLC
[16] = test system: HOP-92 NSCLC
[17] = test system: HS 578T breast
[18] = test system: HT29 colon
[19] = test system: IGROV1 ovarian
[20] = test system: K-562 leukemia
[21] = test system: KM12 colon
[22] = test system: LOX IMVI melanoma
[23] = test system: M14 melanoma
[24] = test system: MALME-3M melanoma
[25] = test system: MCF7 breast
[26] = test system: MDA-MB-231 breast
[27] = test system: MDA-MB-435
[28] = test system: MDA-MB-468 breast
[29] = test system: MOLT-4 leukemia
[30] = test system: NCI-H226 lung
[31] = test system: NCI-H23 lung
[32] = test system: NCI-H460 lung
[33] = test system: NCI-H522 lung
[34] = test system: NCI/ADR-RES ovarian
[35] = test system: OVCAR-3 ovarian
[36] = test system: OVCAR-4 ovarian
[37] = test system: OVCAR-5 ovarian
[38] = test system: OVCAR-8 ovarian
[39] = test system: PC-3 prostate
[40] = test system: RPMI-8226 leukemia
[41] = test system: RXF 393 renal
[42] = test system: SF-268 CNS
[43] = test system: SF-295 CNS
[44] = test system: SF-539 CNS
[45] = test system: SK-MEL-2 melanoma
[46] = test system: SK-MEL-28 melanoma
[47] = test system: SK-MEL-5 melanoma
[48] = test system: SK-OV-3 ovarian
[49] = test system: SN12C renal
[50] = test system: SNB-19 CNS
[51] = test system: SNB-75 CNS
[52] = test system: SR leukemia
[53] = test system: SW-620 colon
[54] = test system: T-47D breast
[55] = test system: TK-10 renal
[56] = test system: U251 CNS
[57] = test system: UACC-257 melanoma
[58] = test system: UACC-62 melanoma
[59] = test system: UO-31 renal

SMILES: Cc1ccc(C2CC(c3ccc(NC(=O)Nc4ccccc4)cc3)=NN2c2ccc(S(N)(=O)=O)cc2)cc1 (stereo not drawn)
- GI50 [1]: 3.86 µM
- TGI [1]: 15.7 µM
- GI50 [2]: 9.06 µM
- TGI [2]: 21.3 µM
- GI50 [3]: 3.36 µM
- TGI [3]: 14.7 µM
- GI50 [4]: 4.16 µM
- TGI [4]: 14.9 µM
- GI50 [5]: 7.84 µM
- TGI [5]: 20.9 µM
- GI50 [6]: 10.4 µM
- TGI [6]: 22.5 µM
- GI50 [7]: 3.98 µM
- TGI [7]: 22 µM
- GI50 [8]: 4.22 µM
- TGI [8]: 18.6 µM
- GI50 [9]: 10.2 µM
- TGI [9]: 23 µM
- GI50 [10]: 4.04 µM
- TGI [10]: 16.4 µM
- GI50 [11]: 2.65 µM
- TGI [11]: 8.77 µM
- GI50 [12]: 2.99 µM
- TGI [12]: 13.5 µM
- GI50 [13]: 4.35 µM
- TGI [13]: 16.9 µM
- GI50 [14]: 2.13 µM
- TGI [14]: 10.6 µM
- GI50 [15]: 13.3 µM
- TGI [15]: 28.7 µM
- GI50 [16]: 3.21 µM
- TGI [16]: 14.8 µM
- GI50 [17]: 14.8 µM
- TGI [17]: 39.1 µM
- GI50 [18]: 2.3 µM
- TGI [18]: 7.45 µM
- GI50 [19]: 6.9 µM
- TGI [19]: 20.3 µM
- GI50 [20]: 3.94 µM
- TGI [20]: > 100 µM
- GI50 [21]: 5.57 µM
- TGI [21]: 22.1 µM
- GI50 [22]: 1.76 µM
- TGI [22]: 3.23 µM
- GI50 [23]: 9.27 µM
- TGI [23]: 27.2 µM
- GI50 [24]: 7.88 µM
- TGI [24]: 20.8 µM
- GI50 [25]: 3.56 µM
- TGI [25]: 15.2 µM
- GI50 [26]: 12.3 µM
- TGI [26]: 25.3 µM
- GI50 [27]: 6.83 µM
- TGI [27]: 21.3 µM
- GI50 [28]: 10.2 µM
- TGI [28]: 24 µM
- GI50 [29]: 2.98 µM
- TGI [29]: 14.1 µM
- GI50 [30]: 10.9 µM
- TGI [30]: 24.9 µM
- GI50 [31]: 3.57 µM
- TGI [31]: 14.3 µM
- GI50 [32]: 2.99 µM
- TGI [32]: 12.5 µM
- GI50 [33]: 2.84 µM
- TGI [33]: 15 µM
- GI50 [34]: 2.83 µM
- TGI [34]: 11 µM
- GI50 [35]: 3.97 µM
- TGI [35]: 18.7 µM
- GI50 [36]: 4.5 µM
- TGI [36]: 17.2 µM
- GI50 [37]: 12.4 µM
- TGI [37]: 25.2 µM
- GI50 [38]: 5.58 µM
- TGI [38]: 21.4 µM
- GI50 [39]: 2.6 µM
- TGI [39]: 12.8 µM
- GI50 [40]: 3.8 µM
- TGI [40]: 35.9 µM
- GI50 [41]: 13.1 µM
- TGI [41]: 27.6 µM
- GI50 [42]: 10.2 µM
- TGI [42]: 24 µM
- GI50 [43]: 5.34 µM
- TGI [43]: 18.8 µM
- GI50 [44]: 12.7 µM
- TGI [44]: 25.4 µM
- GI50 [45]: 7.4 µM
- TGI [45]: 21.5 µM
- GI50 [46]: 10.5 µM
- TGI [46]: 22.5 µM
- GI50 [47]: 15.5 µM
- TGI [47]: 29.5 µM
- GI50 [48]: 12.9 µM
- TGI [48]: 27.1 µM
- GI50 [49]: 3.92 µM
- TGI [49]: 14.5 µM
- GI50 [50]: 12.7 µM
- TGI [50]: 25.4 µM
- GI50 [51]: 10.7 µM
- TGI [51]: 24 µM
- GI50 [52]: 4.28 µM
- TGI [52]: 26.7 µM
- GI50 [53]: 5.53 µM
- TGI [53]: 22.3 µM
- GI50 [54]: 3.37 µM
- TGI [54]: 14.6 µM
- GI50 [55]: 9.93 µM
- TGI [55]: 22.2 µM
- GI50 [56]: 6.86 µM
- TGI [56]: 20.3 µM
- GI50 [57]: 8.48 µM
- TGI [57]: 22 µM
- GI50 [58]: 10.4 µM
- TGI [58]: 22.6 µM
- GI50 [59]: 3.45 µM
- TGI [59]: 14.6 µM
